Results from publication PMC11217349, “Development of Nurr1 agonists from amodiaquine by scaffold hopping and fragment growing” (Communications Chemistry, 2024).
Values joined by “and” are separate entries in the source; they are usually repeats but may differ in a detail not shown here. Identical values can stand only once.

What was measured:
Nurr1 = test system: Nurr1; parameters: method as in PMID 26124091; settings: read-out: EC50 (Nurr1 agonism); cited from earlier work
HEK293T cells = assay: WST-8 cytotoxicity assay, HEK293T; format: cell-based, human; settings: for rel. absorbance (450 nm): HEK293T, WST-8, vs DMSO ctrl
Protocol: (§1) Each sample was prepared in four biologically independent repeats. After incubation for 24 h, the medium was refreshed and 10% water-soluble tetrazolinum salt (Cell Counting Kit-8, MedChemExpress) was added to assess metabolic activity. After 4 h, absorbance was measured at 450 nm using a Tecan Spark Cyto instrument (Tecan).

N27 rat neurons = assay: WST-8 cytotoxicity assay, N27; format: cell-based
Protocol: as §1

[1] = biological target: T1, Nurr1-RXR heterodimer (DR5) (Homo sapiens, UniProt P43354); assay: Full-length Nurr1 reporter gene assay (DR5); format: cell-based; settings: 10 nM to 3 µM
T1 construct: The full-length human nuclear receptor Nurr1 (pcDNA3.1-hNurr1-NE; Addgene plasmid #102363); host or cells: HEK293T
T1 sequence (P43354 whole entry): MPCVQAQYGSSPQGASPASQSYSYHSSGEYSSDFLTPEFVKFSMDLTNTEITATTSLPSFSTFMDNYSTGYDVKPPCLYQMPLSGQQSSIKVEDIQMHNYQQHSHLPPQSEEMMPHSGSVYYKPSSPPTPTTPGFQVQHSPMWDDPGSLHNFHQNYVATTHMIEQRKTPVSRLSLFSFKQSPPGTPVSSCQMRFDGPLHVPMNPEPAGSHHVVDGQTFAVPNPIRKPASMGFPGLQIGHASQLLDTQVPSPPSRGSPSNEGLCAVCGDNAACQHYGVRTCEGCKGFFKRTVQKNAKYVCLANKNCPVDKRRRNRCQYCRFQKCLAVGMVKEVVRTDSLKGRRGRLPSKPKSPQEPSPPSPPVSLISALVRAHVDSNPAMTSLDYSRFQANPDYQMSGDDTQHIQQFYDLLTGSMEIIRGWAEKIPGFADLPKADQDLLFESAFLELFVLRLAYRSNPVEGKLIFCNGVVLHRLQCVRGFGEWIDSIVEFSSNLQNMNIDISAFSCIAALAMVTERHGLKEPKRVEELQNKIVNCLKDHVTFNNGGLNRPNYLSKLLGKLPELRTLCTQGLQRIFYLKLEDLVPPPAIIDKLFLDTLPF
T1 sequence (P19793 whole entry partner): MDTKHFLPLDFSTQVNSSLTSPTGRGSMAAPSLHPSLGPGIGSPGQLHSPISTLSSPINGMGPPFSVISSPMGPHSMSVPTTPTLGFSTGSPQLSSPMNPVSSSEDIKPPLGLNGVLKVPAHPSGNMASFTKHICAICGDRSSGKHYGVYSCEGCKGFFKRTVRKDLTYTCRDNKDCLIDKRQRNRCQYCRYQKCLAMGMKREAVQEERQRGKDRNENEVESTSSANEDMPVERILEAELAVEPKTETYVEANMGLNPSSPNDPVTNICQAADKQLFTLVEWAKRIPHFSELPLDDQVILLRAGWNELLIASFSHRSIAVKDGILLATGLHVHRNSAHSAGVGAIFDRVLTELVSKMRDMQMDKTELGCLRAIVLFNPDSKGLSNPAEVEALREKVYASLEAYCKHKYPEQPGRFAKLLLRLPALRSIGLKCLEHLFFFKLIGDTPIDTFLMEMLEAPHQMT
Protocol: Activation of full-length human Nurr1 was studied in transiently transfected HEK293T cells using the reporter plasmids pFR-Luc-NBRE[14], pFR-Luc-POMC[14] or pFR-Luc-DR5[14] each containing one copy of the respective human Nurr1 response element NBRE Nl3, NurRE, or DR5. […] After 24 h, the medium was changed to Opti-MEM without supplements, and cells were transiently transfected using Lipofectamine LTX reagent (Invitrogen) according to the manufacturer’s protocol. Five hours after transfection, cells were incubated with the test compounds in Opti-MEM supplemented with penicillin (100 U/mL), streptomycin (100 μg/mL) and 0.1% DMSO for 16 h before luciferase activity was measured using the Dual-Glo Luciferase Assay System (Promega) according to the manufacturer’s protocol on a Tecan Spark luminometer (Tecan Deutschland GmbH). Firefly luminescence was divided by Renilla luminescence and multiplied by 1000 resulting in relative light units (RLU) to normalize for transfection efficiency and cell growth. Fold activation was obtained by dividing the mean RLU of the test compound by the mean RLU of the untreated control. All samples were tested in at least three biologically independent experiments in duplicates. For dose-response curve fitting and calculation of EC50 values, the equation “[Agonist] vs. response -- Variable slope (four parameters)” was used in GraphPad Prism (version 7.00, GraphPad Software).

[2] = biological target: T2, human full-length Nurr1 monomer (NBRE) (Homo sapiens, UniProt P43354); assay: Full-length Nurr1 reporter gene assay (NBRE); format: cell-based; settings: 10 nM to 3 µM
T2 construct: The full-length human nuclear receptor Nurr1 (pcDNA3.1-hNurr1-NE; Addgene plasmid #102363); host or cells: HEK293T
T2 sequence (P43354 whole entry): as the sequence (P43354 whole entry) above
Text: (§2) Activation of full-length human Nurr1 was studied in transiently transfected HEK293T cells using the reporter plasmids pFR-Luc-NBRE[14], pFR-Luc-POMC[14] or pFR-Luc-DR5[14] each containing one copy of the respective human Nurr1 response element NBRE Nl3, NurRE, or DR5. The full-length human nuclear receptor Nurr1 (pcDNA3.1-hNurr1-NE; Addgene plasmid #102363) and, for DR5, RXRα (pSG5-hRXR)[57] were overexpressed. pRL-SV40 (Promega) was used for the normalization of transfection efficacy and to observe test compound toxicity. […] After 24 h, the medium was changed to Opti-MEM without supplements, and cells were transiently transfected using Lipofectamine LTX reagent (Invitrogen) according to the manufacturer’s protocol. Five hours after transfection, cells were incubated with the test compounds in Opti-MEM supplemented with penicillin (100 U/mL), streptomycin (100 μg/mL) and 0.1% DMSO for 16 h before luciferase activity was measured using the Dual-Glo Luciferase Assay System (Promega) according to the manufacturer’s protocol on a Tecan Spark luminometer (Tecan Deutschland GmbH). Firefly luminescence was divided by Renilla luminescence and multiplied by 1000 resulting in relative light units (RLU) to normalize for transfection efficiency and cell growth. Fold activation was obtained by dividing the mean RLU of the test compound by the mean RLU of the untreated control. All samples were tested in at least three biologically independent experiments in duplicates. For dose-response curve fitting and calculation of EC50 values, the equation “[Agonist] vs. response -- Variable slope (four parameters)” was used in GraphPad Prism (version 7.00, GraphPad Software).

[3] = test system: full-length human Nurr1 (NBRE); parameters: method as in earlier work; settings: cited from earlier work
[4] = biological target: T3, human full-length Nurr1 homodimer (NurRE) (Homo sapiens, UniProt P43354); assay: Full-length Nurr1 reporter gene assay (NurRE); format: cell-based; settings: 10 nM to 3 µM
T3 construct: The full-length human nuclear receptor Nurr1 (pcDNA3.1-hNurr1-NE; Addgene plasmid #102363); host or cells: HEK293T
T3 sequence (P43354 whole entry): as above
Text: as §2

[5] = biological target: T4, human Nurr1 (hinge region and ligand binding domain) (Homo sapiens, UniProt P43354); assay: Gal4-Nurr1 hybrid reporter gene assay; format: cell-based
T4 construct: expressed in transfected cells; host or cells: HEK293T
T4 sequence (P43354 360-595 limits assumed): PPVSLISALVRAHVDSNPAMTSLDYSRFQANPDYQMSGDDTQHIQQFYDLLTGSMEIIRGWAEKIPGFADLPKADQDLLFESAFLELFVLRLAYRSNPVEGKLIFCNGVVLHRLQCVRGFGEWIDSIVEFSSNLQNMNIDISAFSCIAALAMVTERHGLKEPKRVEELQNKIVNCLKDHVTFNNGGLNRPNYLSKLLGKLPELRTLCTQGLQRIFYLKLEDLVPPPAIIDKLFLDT
Protocol: (§3) Nurr1 modulation was determined in a Gal4 hybrid reporter gene assay in HEK293T cells (German Collection of Microorganisms and Cell Culture GmbH, DSMZ) using pFR-Luc (Stratagene, La Jolla, CA, USA; reporter), pRL-SV40 (Promega, Madison, WI, USA; internal control) and pFA-CMV-hNurr1-LBD[14], coding for the hinge region and ligand binding domain of the canonical isoform of human Nurr1. […] After 24 h, the medium was changed to Opti-MEM without supplements, and cells were transiently transfected using Lipofectamine LTX reagent (Invitrogen, Carlsbad, CA, USA) according to the manufacturer’s protocol. Five hours after transfection, cells were incubated with the test compounds in Opti-MEM supplemented with penicillin (100 U/mL), streptomycin (100 μg/mL), and 0.1% DMSO for 16 h before luciferase activity was measured using the Dual-Glo Luciferase Assay System (Promega) according to the manufacturer’s protocol on a Tecan Spark luminometer (Tecan Deutschland GmbH, Crailsheim, Germany). Firefly luminescence was divided by Renilla luminescence and multiplied by 1000 resulting in relative light units (RLU) to normalize for transfection efficiency and cell growth. Fold activation was obtained by dividing the mean RLU of the test compound by the mean RLU of the untreated control. All samples were tested in at least three biologically independent experiments in duplicates. For dose-response curve fitting and calculation of EC50 values, the equation “[Agonist] vs. response -- Variable slope (four parameters)” was used in GraphPad Prism (version 7.00, GraphPad Software, La Jolla, CA, USA). Selectivity profiling was performed with identical procedures using pFA-CMV-Nur77-LBD[14], pFA-CMV-NOR-1-LBD[14], pFA-CMV-THRα-LBD[51], pFA-CMV-RARα-LBD[52], pFA-CMV-PPARα-LBD[53], pFA-CMV-PPARγ-LBD[53], pFA-CMV-PPARδ-LBD[53], pFA-CMV-LXRα-LBD[54], pFA-CMV-FXR-LBD[55] and pFA-CMV-hRXRα-LBD[56].

Nurr1 LBD = biological target: T5, Nurr1 LBD (Homo sapiens, UniProt P43354); assay: Isothermal titration calorimetry (ITC); format: binding; settings: 25 °C
T5 construct: Nurr1 LBD protein (5–30 µM, expressed as described previously[21]); made in house
T5 sequence (P43354 360-595 limits assumed): as above
Protocol: ITC experiments were conducted on an Affinity ITC instrument (TA Instruments, New Castle, DE) at 25 °C with a stirring rate of 75 rpm. Nurr1 LBD protein (5–30 µM, expressed as described previously[21]) in buffer (20 mM Tris pH 7.5, 100 mM NaCl, 5% glycerol) containing 1–4% DMSO was titrated with the test compounds (30–150 μM in the same buffer containing 1-4% DMSO) in 26 injections (1 × 1 µL, 25 × 3-4 μL) with an injection interval of 120-150 s. As control experiments, the test compounds were titrated to the buffer, and the buffer was titrated to the Nurr1 LBD protein under otherwise identical conditions. Results were analyzed using NanoAnalyze software (version 3.11.0, TA Instruments, New Castle, DE) with independent binding models.

Nur77 = biological target: T6, Nur77 (Homo sapiens, UniProt P22736); assay: Gal4-Nur77 hybrid reporter gene assay; format: cell-based; settings: 10 nM to 3 µM
T6 construct: chimeric receptors composed of the Gal4-DBD and the hinge region and LBD; expressed in transfected cells; host or cells: HEK293T
T6 sequence (P22736 360-595 limits assumed): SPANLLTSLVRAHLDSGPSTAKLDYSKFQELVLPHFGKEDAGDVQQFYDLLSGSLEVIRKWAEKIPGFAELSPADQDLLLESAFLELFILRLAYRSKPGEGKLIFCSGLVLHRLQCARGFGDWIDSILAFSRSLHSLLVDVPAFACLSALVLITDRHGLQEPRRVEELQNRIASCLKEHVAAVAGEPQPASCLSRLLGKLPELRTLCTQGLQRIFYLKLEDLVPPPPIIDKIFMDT
Protocol: as §3

NOR-1 = biological target: T7, NOR-1 (Homo sapiens, UniProt Q92570); assay: Gal4-NOR-1 hybrid reporter gene assay; format: cell-based; settings: 10 nM to 3 µM
T7 construct: chimeric receptors composed of the Gal4-DBD and the hinge region and LBD; expressed in transfected cells; host or cells: HEK293T
T7 sequence (Q92570 394-623 limits assumed): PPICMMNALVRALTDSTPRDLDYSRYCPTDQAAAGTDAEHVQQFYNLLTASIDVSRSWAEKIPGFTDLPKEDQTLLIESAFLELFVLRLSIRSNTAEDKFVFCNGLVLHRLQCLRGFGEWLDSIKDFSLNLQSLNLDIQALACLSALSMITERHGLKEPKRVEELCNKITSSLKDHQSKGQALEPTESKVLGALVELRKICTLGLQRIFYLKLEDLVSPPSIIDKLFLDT
Protocol: as §3

| activation of full-length Nurr1 on DR5 [1] | activation of full-length Nurr1 on NBRE [2] | activation of full-length Nurr1 on NurRE [4] | activation of Nurr1 ([5]; Gal4 hybrid reporter, 10 nM to 3 µM) | Kd (Nurr1 LBD) (Nurr1 LBD) | activation of Nur77 (Nur77) | activation of NOR1 (NOR-1) | SMILES | EC50 (Nurr1) [µM] | toxicity (WST-8) (HEK293T cells; HEK293T cells, 24 h) | rel. absorbance (450 nm) (HEK293T cells; 10 µM) | rel. absorbance (450 nm) (HEK293T cells; 30 µM) [%] | rel. absorbance (450 nm) (N27 rat neurons; N27, 10 µM, WST-8, vs DMSO ctrl) | rel. absorbance (450 nm) / remaining metabolic activity (N27 rat neurons; N27, 30 µM, WST-8, vs DMSO ctrl) | toxicity (WST-8) (N27 rat neurons; N27 rat neurons, 24 h) | EC50 [3] [µM] | cytotoxicity in reporter gene assays ([5]; concentrations higher than 3 µM, drop in renilla luciferase control, HEK293T) |
| --- | --- | --- | --- | --- | --- | --- | --- | --- | --- | --- | --- | --- | --- | --- | --- | --- |
|  |  |  |  |  |  |  | CCN(CC)Cc1cc(Nc2ccnc3cc(Cl)ccc23)ccc1O [AQ, amodiaquine] | ~20 | toxic | 75% and 70% | 47 | 37% and 39% and 40% | 21% and 22% and 23% | toxic |  |  |
| no effect and no | no effect and no | no effect and no | No activation | potential weak binding | No activation | No activation | CC(C)(O)c1cccc(-c2ccc3nc(-c4ccc(Cl)cc4)cn3c2)c1 [SA00025, reference compound] |  |  |  |  |  |  |  | 0.217 | considerably cytotoxic |
